Experiments:
[1] = target: T1, Human Neuropeptide Y2 Receptor (Homo sapiens, UniProt P49146); assay: Radioligand binding competition assay (RLB); conditions: Table 3, 125I-PYY(1-36) competition; read-out: Ki
T1 construct: purchased CHEMICON HTS066M
T1 sequence (P49146 1-381): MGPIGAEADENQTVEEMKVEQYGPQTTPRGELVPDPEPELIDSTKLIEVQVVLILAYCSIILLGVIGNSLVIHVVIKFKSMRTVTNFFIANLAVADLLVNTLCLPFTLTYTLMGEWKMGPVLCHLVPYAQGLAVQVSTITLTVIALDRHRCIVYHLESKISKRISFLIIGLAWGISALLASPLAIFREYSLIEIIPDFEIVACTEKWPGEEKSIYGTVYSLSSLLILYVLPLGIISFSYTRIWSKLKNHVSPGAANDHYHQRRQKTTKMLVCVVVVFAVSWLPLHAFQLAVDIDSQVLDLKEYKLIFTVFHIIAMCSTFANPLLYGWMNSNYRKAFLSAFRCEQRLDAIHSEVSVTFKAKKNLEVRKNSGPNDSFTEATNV
Outline: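 Receptor membranes, 0.5 μg/well; buffer 50 mM HEPES/5 mM MgCl2/1 mM CaCl2/0.2% ovalbumin, pH 7.4; 2 h RT, shaking. GF/C filtration, cold HEPES/500 mM NaCl wash, scintillation count. IC50 by nonlinear regression.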

[2] = Solubility determination; conditions: for Sol6: pH 6; for Sol7: pH 7
Outline: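 Solubility is derived from the ratio of reversed-phase peak areas, filtered sample over a control dissolved at 1 mg/ml in 50% acetonitrile. Peptides are agitated for 2 hours at room temperature in 0.1 M sodium diphosphate at pH 6.4 or 7.0, aiming at 10 mg/ml.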

| SMILES | Ki [1] [nM] | Sol6 [2] [mg/mL] | Sol7 [2] [mg/mL] |
| --- | --- | --- | --- |
| CC(C)CC(=O)N[C@@H](C)C(=O)N1CCC[C@H]1C(=O)N[C@@H](C)C(=O)N[C@@H](CCCCNC(=O)CCCCCNC(=O)CC[C@H](NC(=O)CCCCCCCCCCCCCCCCC(=O)O)C(=O)O)C(=O)N1CCC[C@H]1C(=O)N[C@@H](CCC(=O)O)C(=O)N[C@@H](CCC(=O)O)C(=O)N[C@@H](CC(=O)O)C(=O)N[C@@H](C)C(=O)N[C@H](C(=O)N1CCC[C@H]1C(=O)N[C@@H](CCC(=O)O)C(=O)N[C@@H](CCC(=O)O)C(=O)N[C@@H](C)C(=O)N[C@@H](CCC(N)=O)C(=O)N[C@@H](CCCNC(=N)N)C(=O)N[C@@H](Cc1ccc(O)cc1)C(=O)N[C@@H](Cc1ccc(O)cc1)C(=O)N[C@H](C(=O)N[C@@H](CO)C(=O)N[C@@H](CC(C)C)C(=O)N[C@@H](CCCNC(=N)N)C(=O)N[C@@H](Cc1c[nH]cn1)C(=O)N[C@@H](Cc1ccc(O)cc1)C(=O)N[C@@H](Cc1ccc(O)cc1)C(=O)N[C@@H](CC(N)=O)C(=O)N[C@@H](Cc1c[nH]c2ccccc12)C(=O)N[C@@H](CC(C)C)C(=O)N[C@H](C(=O)N[C@@H](CCCNC(=N)N)C(=O)N[C@@H](CCC(N)=O)C(=O)N[C@@H](CCCNC(=N)N)C(=O)N[C@@H](Cc1ccc(O)cc1)C(N)=O)[C@@H](C)O)C(C)C)[C@@H](C)O [Compound 57, N{alpha-4}-(3-methylbutanoyl)-N{epsilon-7}-(6-[(4S)-4-carboxy-4-(17-carboxyheptadecanamido)butanamido]hexanoyl)-[4A,6A,7K,9E,13T,17A,18Q,22V,28Y,30W,31L]-hPYY(4-36)] | 2.07 | 8.3 | 9.6 |
| CC(C)CC(=O)N[C@@H](C)C(=O)N1CCC[C@H]1C(=O)N[C@@H](CCC(=O)O)C(=O)N[C@@H](CCCCNC(=O)CCCCCNC(=O)CC[C@H](NC(=O)CCCCCCCCCCCCCCCCC(=O)O)C(=O)O)C(=O)N1CCC[C@H]1C(=O)N[C@@H](CCC(=O)O)C(=O)N[C@@H](C)C(=O)N[C@@H](CC(=O)O)C(=O)N[C@@H](C)C(=O)N[C@@H](CO)C(=O)N1CCC[C@H]1C(=O)N[C@@H](CCC(=O)O)C(=O)N[C@@H](CCC(=O)O)C(=O)N[C@@H](CC(C)C)C(=O)N[C@@H](CCC(N)=O)C(=O)N[C@@H](CCCNC(=N)N)C(=O)N[C@@H](Cc1ccc(O)cc1)C(=O)N[C@@H](Cc1ccc(O)cc1)C(=O)N[C@H](C(=O)N[C@@H](CCC(N)=O)C(=O)N[C@@H](CC(C)C)C(=O)N[C@@H](CCCNC(=N)N)C(=O)N[C@@H](Cc1c[nH]cn1)C(=O)N[C@@H](Cc1ccc(O)cc1)C(=O)N[C@@H](Cc1ccc(O)cc1)C(=O)N[C@@H](CC(N)=O)C(=O)N[C@@H](Cc1c[nH]c2ccccc12)C(=O)N[C@@H](CC(C)C)C(=O)N[C@H](C(=O)N[C@@H](CCCNC(=N)N)C(=O)N[C@@H](CCC(N)=O)C(=O)N[C@@H](CCCNC(=N)N)C(=O)N[C@@H](Cc1ccc(O)cc1)C(N)=O)[C@@H](C)O)C(C)C [Compound 121, N{alpha-4}-(3-methylbutanoyl)-N{epsilon-7}-(6-[(4S)-4-carboxy-4-(17-carboxyheptadecanamido)butanamido]hexanoyl)-[4A,7K,9E,10A,18Q,22V,23Q,28Y,30W,31L]-hPYY(4-36)] | 1.45 | 9.1 | 8.9 |
| CC[C@H](C)[C@H](NC(=O)[C@H](CCC(=O)O)NC(=O)[C@H](CCC(=O)O)NC(=O)[C@@H]1CCCN1C(=O)[C@@H](NC(=O)[C@H](C)NC(=O)[C@H](CC(=O)O)NC(=O)[C@H](CCC(=O)O)NC(=O)[C@H](CCC(=O)O)NC(=O)[C@@H]1CCCN1C(=O)[C@H](CCCCNC(=O)CCCCCNC(=O)CC[C@H](NC(=O)CCCCCCCCCCCCCCCCC(=O)O)C(=O)O)NC(=O)[C@H](CCC(=O)O)NC(=O)[C@@H]1CCCN1C(=O)[C@H](C)NC(=O)CC(C)C)[C@@H](C)O)C(=O)N[C@@H](CCC(N)=O)C(=O)N[C@@H](CCCNC(=N)N)C(=O)N[C@@H](Cc1ccc(O)cc1)C(=O)N[C@@H](Cc1ccc(O)cc1)C(=O)N[C@@H](CC(C)C)C(=O)N[C@@H](CO)C(=O)N[C@@H](CC(C)C)C(=O)N[C@@H](CCCNC(=N)N)C(=O)N[C@@H](Cc1c[nH]cn1)C(=O)N[C@@H](Cc1ccc(O)cc1)C(=O)N[C@@H](Cc1ccc(O)cc1)C(=O)N[C@@H](CC(N)=O)C(=O)N[C@@H](Cc1c[nH]c2ccccc12)C(=O)N[C@@H](CC(C)C)C(=O)N[C@H](C(=O)N[C@@H](CCCNC(=N)N)C(=O)N[C@@H](CCC(N)=O)C(=O)N[C@@H](CCCNC(=N)N)C(=O)N[C@@H](Cc1ccc(O)cc1)C(N)=O)[C@@H](C)O [Compound 97, N{alpha-4}-(3-methylbutanoyl)-N{epsilon-7}-(6-[(4S)-4-carboxy-4-(17-carboxyheptadecanamido)butanamido]hexanoyl)-[4A,7K,9E,13T,17I,18Q,22L,28Y,30W,31L]-hPYY(4-36)] | 4.23 | >10.0 | >10.0 |
| CC(C)CC(=O)N[C@@H](C)C(=O)N1CCC[C@H]1C(=O)N[C@@H](C)C(=O)N[C@@H](CCCCNC(=O)CCCCCNC(=O)CC[C@H](NC(=O)CCCCCCCCCCCCCCCCC(=O)O)C(=O)O)C(=O)N1CCC[C@H]1C(=O)N[C@@H](CCC(=O)O)C(=O)N[C@@H](C)C(=O)N[C@@H](CC(=O)O)C(=O)N[C@@H](C)C(=O)N[C@@H](CO)C(=O)N1CCC[C@H]1C(=O)N[C@@H](CCC(=O)O)C(=O)N[C@@H](CCC(=O)O)C(=O)N[C@@H](CC(C)C)C(=O)N[C@@H](CCC(N)=O)C(=O)N[C@@H](CCCNC(=N)N)C(=O)N[C@@H](Cc1ccc(O)cc1)C(=O)N[C@@H](Cc1ccc(O)cc1)C(=O)N[C@H](C(=O)N[C@@H](CCC(=O)O)C(=O)N[C@@H](CC(C)C)C(=O)N[C@@H](CCCNC(=N)N)C(=O)N[C@@H](Cc1c[nH]cn1)C(=O)N[C@@H](Cc1ccc(O)cc1)C(=O)N[C@@H](Cc1ccc(O)cc1)C(=O)N[C@@H](CC(N)=O)C(=O)N[C@@H](Cc1c[nH]c2ccccc12)C(=O)N[C@@H](CC(C)C)C(=O)N[C@H](C(=O)N[C@@H](CCCNC(=N)N)C(=O)N[C@@H](CCC(N)=O)C(=O)N[C@@H](CCCNC(=N)N)C(=O)N[C@@H](Cc1ccc(O)cc1)C(N)=O)[C@@H](C)O)C(C)C [Compound 94, N{alpha-4}-(3-methylbutanoyl)-N{epsilon-7}-(6-[(4S)-4-carboxy-4-(17-carboxyheptadecanamido)butanamido]hexanoyl)-[4A,6A,7K,9E,10A,18Q,22V,23E,28Y,30W,31L]-hPYY(4-36)] | 0.93 | 8.4 | 8.9 |
| CC(C)CC(=O)N[C@@H](C)C(=O)N1CCC[C@H]1C(=O)N[C@@H](CCC(=O)O)C(=O)N[C@@H](CCCCNC(=O)CCCCCNC(=O)CC[C@H](NC(=O)CCCCCCCCCCCCCCCCC(=O)O)C(=O)O)C(=O)N1CCC[C@H]1C(=O)N[C@@H](CCC(=O)O)C(=O)N[C@@H](CCC(=O)O)C(=O)N[C@@H](CC(=O)O)C(=O)N[C@@H](C)C(=O)N[C@H](C(=O)N1CCC[C@H]1C(=O)N[C@@H](CCC(=O)O)C(=O)N[C@@H](CCC(=O)O)C(=O)N[C@@H](CC(C)C)C(=O)N[C@@H](CCC(N)=O)C(=O)N[C@@H](CCCNC(=N)N)C(=O)N[C@@H](Cc1ccc(O)cc1)C(=O)N[C@@H](Cc1ccc(O)cc1)C(=O)N[C@H](C(=O)N[C@H](C(=O)N[C@@H](CC(C)C)C(=O)N[C@@H](CCCNC(=N)N)C(=O)N[C@@H](Cc1c[nH]cn1)C(=O)N[C@@H](Cc1ccc(O)cc1)C(=O)N[C@@H](Cc1ccc(O)cc1)C(=O)N[C@@H](CC(N)=O)C(=O)N[C@@H](Cc1c[nH]c2ccccc12)C(=O)N[C@@H](CC(C)C)C(=O)N[C@H](C(=O)N[C@@H](CCCNC(=N)N)C(=O)N[C@@H](CCC(N)=O)C(=O)N[C@@H](CCCNC(=N)N)C(=O)N[C@@H](Cc1ccc(O)cc1)C(N)=O)[C@@H](C)O)C(C)C)C(C)C)[C@@H](C)O [Compound 90, N{alpha-4}-(3-methylbutanoyl)-N{epsilon-7}-(6-[(4S)-4-carboxy-4-(17-carboxyheptadecanamido)butanamido]hexanoyl)-[4A,7K,9E,13T,18Q,22V,23V,28Y,30W,31L]-hPYY(4-36)] | 8.71 | 9.6 | 10.0 |
| CC(C)CC(=O)N[C@@H](C)C(=O)N1CCC[C@H]1C(=O)N[C@@H](C)C(=O)N[C@@H](CCCCNC(=O)CCCCCNC(=O)CC[C@H](NC(=O)CCCCCCCCCCCCCCCCC(=O)O)C(=O)O)C(=O)N1CCC[C@H]1C(=O)N[C@@H](CCC(=O)O)C(=O)N[C@@H](CCC(=O)O)C(=O)N[C@@H](CC(=O)O)C(=O)N[C@@H](C)C(=O)N[C@@H](CO)C(=O)N1CCC[C@H]1C(=O)N[C@@H](CCC(=O)O)C(=O)N[C@@H](CCC(=O)O)C(=O)N[C@H](C(=O)N[C@@H](CCC(N)=O)C(=O)N[C@@H](CCCNC(=N)N)C(=O)N[C@@H](Cc1ccc(O)cc1)C(=O)N[C@@H](Cc1ccc(O)cc1)C(=O)N[C@H](C(=O)N[C@@H](CO)C(=O)N[C@@H](CC(C)C)C(=O)N[C@@H](CCCNC(=N)N)C(=O)N[C@@H](Cc1c[nH]cn1)C(=O)N[C@@H](Cc1ccc(O)cc1)C(=O)N[C@@H](Cc1ccc(O)cc1)C(=O)N[C@@H](CC(N)=O)C(=O)N[C@@H](Cc1c[nH]c2ccccc12)C(=O)N[C@@H](CC(C)C)C(=O)N[C@H](C(=O)N[C@@H](CCCNC(=N)N)C(=O)N[C@@H](CCC(N)=O)C(=O)N[C@@H](CCCNC(=N)N)C(=O)N[C@@H](Cc1ccc(O)cc1)C(N)=O)[C@@H](C)O)C(C)C)[C@@H](C)O [Compound 85, N{alpha-4}-(3-methylbutanoyl)-N{epsilon-7}-(6-[(4S)-4-carboxy-4-(17-carboxyheptadecanamido)butanamido]hexanoyl)-[4A,6A,7K,9E,17T,18Q,22V,28Y,30W,31L]-hPYY(4-36)] | 1.61 | 8.6 | 9.1 |

Source: patent publication US12391737B2, “Soluble NPY2 receptor agonists” (Boehringer Ingelheim International GmbH, priority 2020, dated 2025)
